# In US8865909B2, “Anti-biofilm agents” (Yissum Research Development Company of the Hebrew …, priority 2008, dated 2014):
# Assays:
# [1] = test system: MDCK cells; assay: MDCK cells viability assay (XTT); format: cell-based, canine; details: 40 minutes + 120 minutes with XTT
# Procedure: (§1) Madine-Derby canine kidney cells (MDCK) are a non-cancerous, polarized epithelial cell line, used in the research of cell polarity mechanisms, and in the research of pathogen interactions with epithelial tissues. These cells produce monolayers in which cells are polarized and tightly connected to each other. The cells were treated with TZD10 for 40 minutes without the XTT reagents that were then added for further 120 minutes incubation. The influence of TZD10 on the attachment of MDCK cells was investigated using an identical method used for the Vero cells (the 96 well polystyrene plate method) as presented hereinabove.
# [2] = test system: V. harveyi strains; assay: MIC, broth dilution antibacterial susceptibility test; format: cell-based
# Procedure: A series of V. harveyi strains (wild-type and mutants), marine bacteria which are used as a widely accepted model for testing quorum sensing, was used in the experiments below.
# MIC was determined according to the CLSI, formerly NCCLS (National Committee for Clinical Laboratory Standards) recommendation for broth dilution antibacterial susceptibility test.
# All the tested V. harveyi strains (adjusted to 0.5 MacFarlane standard suspension) were grown at 30° C., in the presence of the tested agent at concentrations ranging from 2 μM to 10 mM, in 96-well transparent micro-titration plates (NUNC, Denmark).
# After 18 hours of incubation, bacterial growth was determined according to the density measured by absorbance at 595 nm (GENios reader TECAN-Austria).
# Each experiment was conducted in triplicate samples and repeated three times. Based on MIC results, the exemplary anti-biofilm forming agent with the highest MIC values (lowest antibacterial activity) was selected for the anti-quorum sensing activity screening assay.
# [3] = test system: Vero cells; assay: Vero cells detachment from T-flasks; format: cell-based; details: 100 μg/ml TZD10 + 1.34 mM EDTA in PBS, 40 minutes
# Procedure: Vero cells were grown on for 6 days in T-flask with DMEM+10% FCS+Hepes+Glutamine+Pen-strep (Beit HaEmek). The cells were then washed with PBS and incubated for 40 minutes with 100 μg/ml TZD10+1.34 mM (about 0.5 mg/ml) EDTA in PBS without calcium and magnesium (Beit HaEmek).
# [4] = test system: Vero cells; assay: Vero cell viability assay (XTT); format: cell-based; details: 160 minutes
# Procedure: The effect of TZD10 on the viability of Vero cells was detected by incubating the cells for 40 minutes with TZD10, and further incubation for 120 minutes with the XTT reagents in the same medium without washings, so that the total incubation time with TZD10 was 160 minutes. The cells were treated with TZD10 for 40 minutes without the XTT reagents that were then added for further 120 minutes incubation.
# [5] = test system: V. harveyi wild-type strain (BB120) matured biofilms; assay: Biofilm disruption by confocal scanning laser microscopy; format: cell-based; details: 2, 20, 200 μM (lower than MIC), 18 hours
# Procedure: The biofilm eradication concentration (BEC) for exemplary ABF agents according to embodiments of the present invention was measured as the effect of the tested agent on mature and fully formed biofilm. The effect of TZD10, an exemplary ABF agent according to embodiments of the present invention, on the depth and the density of the biofilm was determined using fluorescent stains analyzed by computer image analysis using confocal scanning laser microscopy (CLSM). Briefly, biofilms were allowed to form in sterile micrtiture dishes as described hereinabove. After washing the formed biofilm, fresh AB medium and an appropriate medium containing TZD10 were added and incubated for additional 18 hours. Bacteria in biofilm were stained with fluorescent dyes to detect the biofilm. The stained biofilms were examined with a Zeiss LSM 410 confocal laser scanning system attached to a Zeiss Axiovert inverted microscope fitted with a 40×/1.3 Plan-Neofluar lens. In each experiment, exciting laser intensity, background level, contrast and electronic zoom size were maintained at the same level. At least 3 random fields for each experiment were chosen and scored from each sample. Biofilm structure was analyzed as a series of horizontal opto-digital sections. […]
# [6] = Solubility observed in the Vero cell assay wells; format: physicochemical; details: at a concentration of 100 μg/ml and above; crystals at bottom of well
# [7] = test system: MDCK cells; assay: MDCK cells detachment assay; format: cell-based, canine
# Procedure: as §1
# [8] = test system: V. harveyi strains; assay: Quorum sensing inhibition (luminescence), planktonic conditions; format: cell-based; details: BB120, BB170, BB886, BB721, JAF375, with AI-1, AI-2 or AI-0 spent medium
# Procedure: Mutant strains of V. harveyi, which are impaired at different locations of the quorum sensing (QS) cascade (see, Table 1 hereinabove) were used for the QSI assays. Bacteria were grown to cell density of 1.5-2.5×10^9 CFU/ml (15-16 hours) in AB medium at 30° C. with constant shaking. The fresh cultures were then diluted 5000-fold in fresh AB medium containing TZD10, an exemplary ABF agent according to embodiments of the present invention, at concentrations of 0.02, 0.2, 20 and 200 μM. […]
# The assay was conducted in white 96-well microtitraton plates with a clear bottom (NUNC, Denmark). Luminescence was measured continuously by a GENios reader (TECAN, Austria) every 30 minutes and the bacterial density was determined (O.D. 595 nm).
# Each sample was tested in three separate biological experiments, each conducted in triplicate samples. The effect of the ABF agent was determined relatively to the endogenous level of luminescence expressed by V. harveyi BB120, BB721, BB170, BB886 and JAF375 relative to the OD, by calculating the area under the curve (AUC) between 3.5-7 hours, applying the trapezoid rule for AUC calculation.
structure (smiles),measurement,setting,value
"CCCCCCCCC/C=C1\SC(=O)NC1=O [TZD10, (Z)-5-decylidenethiazolidine-2,4-dione]",toxicity compared with Vero cells,[1],more toxic to MDCK cells than to Vero cells
same,antibacterial activity,[2]; V. harveyi mutants and wild-type,lack of antibacterial activity per se
same,MIC,[2]; Vibrio harveyi,< 10 mM
same,MIC,[2]; strain BB120 (wild-type),<10 mM
same,MIC,"[2]; strain BB170 (sensor 1-, sensor 2+)",<10 mM
same,MIC,[2]; strain BB721 (LuxO null),<10 mM
same,MIC,"[2]; strain BB886 (sensor 1+, sensor 2-)",<10 mM
same,cell release from T-flask,[3],could be released from the flask by pipettetion
same,toxicity to Vero cells,[4]; 125 μg/ml and above,partially cytotoxic
same,toxicity to Vero cells,[4]; up to 100 μg/ml,not toxic
same,biofilm disruption,[5],dose response effect of biofilm disruption
same,solubility,[6],not completely soluble
same,cell detachment from the polystyrene dish,[7],detached
same,time of detachment compared with Vero cells,[7],observed sooner than it has been observed with Vero cells
same,effect on quorum sensing (luminescence),[8],classic dose-response curve
